According to US8110566B2, “Therapeutic agents 713” (AstraZeneca AB, priority 2009, dated 2012):

Columns and labels:
[1] = target: T1, human Melanin Concentrating Hormone receptor 1 (MCHR1) (Homo sapiens, UniProt Q99705); experiment: MCHr1 IC50 (MCH binding assay / MCHR1 receptor activation assay)
T1 construct: host or cells: CHO-K1 (membranes)

[2] = target: T2, human histamine H3 receptors (Homo sapiens, UniProt Q9Y5N1); experiment: Histamine H3 SPA with [3H]-N-α-methylhistamine and/or GTPγS binding assay
T2 construct: human histamine H3 receptors (full-length H3, the most prevalent brain isoform 445); host or cells: CHO-K1, stably expressing (membranes)
T2 sequence (Q9Y5N1 whole entry, canonical isoform): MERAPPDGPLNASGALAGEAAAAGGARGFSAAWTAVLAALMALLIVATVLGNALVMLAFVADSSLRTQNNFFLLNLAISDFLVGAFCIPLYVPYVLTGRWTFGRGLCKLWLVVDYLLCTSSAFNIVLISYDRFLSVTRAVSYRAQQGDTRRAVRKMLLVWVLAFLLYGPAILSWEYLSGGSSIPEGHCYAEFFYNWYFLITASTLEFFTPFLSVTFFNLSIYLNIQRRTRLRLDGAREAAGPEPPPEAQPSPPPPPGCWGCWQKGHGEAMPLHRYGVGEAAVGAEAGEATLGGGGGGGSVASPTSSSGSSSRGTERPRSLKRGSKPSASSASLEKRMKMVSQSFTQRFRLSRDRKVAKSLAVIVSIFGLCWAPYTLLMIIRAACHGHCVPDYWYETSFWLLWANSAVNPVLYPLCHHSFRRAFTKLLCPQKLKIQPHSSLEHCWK

T1 sequence (Q99705 whole entry): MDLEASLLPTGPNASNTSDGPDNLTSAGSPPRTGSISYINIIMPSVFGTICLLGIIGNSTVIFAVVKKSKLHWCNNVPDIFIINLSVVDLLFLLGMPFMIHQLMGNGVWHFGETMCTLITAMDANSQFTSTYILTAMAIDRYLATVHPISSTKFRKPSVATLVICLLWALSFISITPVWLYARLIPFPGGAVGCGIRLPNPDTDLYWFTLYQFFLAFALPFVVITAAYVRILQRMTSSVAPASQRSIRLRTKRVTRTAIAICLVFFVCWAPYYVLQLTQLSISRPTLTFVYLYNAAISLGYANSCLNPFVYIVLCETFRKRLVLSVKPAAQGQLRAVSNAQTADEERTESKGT

Row | IC50 [1] [nM] | IC50 [2] [nM] | SMILES
1 | 17 | 410 | O=C(c1nnc(-c2ccccc2)o1)N1CC(Oc2ccc(CN3CC4(COC4)C3)c(Cl)c2)C1 [Example 1, (3-(4-(2-Oxa-6-azaspiro[3.3]heptan-6-ylmethyl)-3-chlorophenoxy)azetidin-1-yl)(5-phenyl-1,3,4-oxadiazol-2-yl)methanone]
2 | 10 | 620 | O=C(c1nnc(-c2ccc(Cl)cc2)o1)N1CC(Oc2ccc(CN3CC4(COC4)C3)cc2)C1 [Example 2, (3-(4-(2-Oxa-6-azaspiro[3.3]heptan-6-ylmethyl)phenoxy)azetidin-1-yl)(5-(4-chlorophenyl)-1,3,4-oxadiazol-2-yl)methanone]
3 | 12 |  | O=C(c1nnc(-c2ccc(OC(F)F)cc2)o1)N1CC(Oc2ccc(CN3CC4(COC4)C3)cc2)C1 [Example 7, (3-(4-(2-Oxa-6-azaspiro[3.3]heptan-6-ylmethyl)phenoxy)azetidin-1-yl)(5-(4-(difluoromethoxy)phenyl)-1,3,4-oxadiazol-2-yl)methanone]
4 | 24 |  | O=C(c1nnc(-c2ccc(F)cc2)o1)N1CC(Oc2ccc(CN3CC4(COC4)C3)cc2)C1 [Example 6, (3-(4-(2-Oxa-6-azaspiro[3.3]heptan-6-ylmethyl)phenoxy)azetidin-1-yl)(5-(4-fluorophenyl)-1,3,4-oxadiazol-2-yl)methanone]
5 | 24 |  | O=C(c1nnc(-c2ccccc2)o1)N1CC(Oc2ccc(CN3CC4(COC4)C3)cc2Cl)C1 [Example 8, (3-(4-(2-Oxa-6-azaspiro[3.3]heptan-6-ylmethyl)-2-chlorophenoxy)azetidin-1-yl)(5-phenyl-1,3,4-oxadiazol-2-yl)methanone]
6 | 27 |  | COc1ccc(-c2nnc(C(=O)N3CC(Oc4ccc(CN5CC6(C5)OCC6(C)C)cc4)C3)o2)cc1 [Example 9, (3-(4-((3,3-Dimethyl-1-oxa-6-azaspiro[3.3]heptan-6-yl)methyl)phenoxy)azetidin-1-yl)(5-(4-methoxyphenyl)-1,3,4-oxadiazol-2-yl)methanone]
7 | 17 |  | O=C(c1nnc(-c2ccccc2)o1)N1CC(Sc2ccc(CN3CC4(COC4)C3)cc2)C1 [Example 5, (3-(4-(2-Oxa-6-azaspiro[3.3]heptan-6-ylmethyl)phenylthio)azetidin-1-yl)(5-phenyl-1,3,4-oxadiazol-2-yl)methanone]
8 | 30 |  | CC1(C)COC12CN(Cc1ccc(OC3CN(C(=O)c4nnc(-c5ccccc5)o4)C3)c(Cl)c1)C2 [Example 10, (3-(2-Chloro-4-((3,3-dimethyl-1-oxa-6-azaspiro[3.3]heptan-6-yl)methyl)phenoxy)azetidin-1-yl)(5-phenyl-1,3,4-oxadiazol-2-yl)methanone]
9 |  | 800 | O=C(c1nnc(-c2ccccc2)o1)N1CC(Oc2ccc(CN3CC4(COC4)C3)cc2)C1 [Example 3, (3-(4-(2-Oxa-6-azaspiro[3.3]heptan-6-ylmethyl)phenoxy)azetidin-1-yl)(5-phenyl-1,3,4-oxadiazol-2-yl)methanone]
